Reference: ChEMBL document CHEMBL2363022, “Malaria Box Schistosomiasis Screening Data” (2013)

Key:
Assay type in all cases: functional
Design in all cases: scale not given here
Schistosoma mansoni [1] = tested on: Schistosoma mansoni
Schistosoma mansoni [2] = tested on: Schistosoma mansoni; remark: listed apart in the source
Schistosoma mansoni [3] = tested on: Schistosoma mansoni; remark: listed apart in the source

Compound | Toxicity (Schistosoma mansoni [1]) | Toxicity (Schistosoma mansoni [2]) | Toxicity (Schistosoma mansoni [3])
CC(=O)c1ccc(NC(=O)CSc2nc(-c3ccccc3Cl)ns2)cc1 | 0 | 0 | 0
COc1ccc(N2CCN(C(CNC(=O)C3CCCCC3)c3ccc4c(c3)OCO4)CC2)cc1 (centres undefined) | 0 | 0 | 0
CCc1ccc(Nc2cc(C)nc3nc(C)nn23)cc1 | 0 | 0 | 0
CCOC(=O)c1cn(CC)c2cc(N(C)CCc3ccc(OC)c(OC)c3)c(F)cc2c1=O | 0 | 0 | 0
CN(C)CCCNc1c2ccccc2nc2ccccc12 | 4 | 2 | 2
COc1ccc(-c2nonc2NC(=O)c2cccc(C)c2)cc1OC | 0 | 0 | 0
Cc1[nH]c(-c2ccc(F)cc2)cc1C(=O)NC1CCN(Cc2ccccc2)CC1 | 3 | 0 | 0
Cc1cc(Nc2ccc(OCc3ccccc3)cc2)nc2cc(O)ccc12 | 4 | 3 | 2
COc1ccc(-c2cc(=O)oc3c4c(ccc23)OCN(Cc2ccc(F)cc2)C4)cc1 | 0 | 0 | 0
Cc1cc(Nc2ccc(C)c(Cl)c2)n2nc(C(F)(F)F)nc2n1 | 0 | 0 | 0
COc1ccc(C(O)(CCC(C)C)C(CN2CCOCC2)c2ccc(Cl)cc2)cc1.Cl (centres undefined) | 0 | 0 | 0
COc1ccc(-c2nc(N3CCN(C(=O)C4CCCCC4)CC3)c3c4c(sc3n2)CCCC4)cc1 | 0 | 0 | 0
COc1ccc(CNC(=O)c2cc3c(=O)n4ccccc4nc3n(CCc3ccccc3)c2=N)cc1 | 4 | 4 | 1
CCN(CC)CCNc1ncnc2c1[nH]c1ccc(Cl)cc12 | 0 | 0 | 0
COc1cccc(Cn2c(Oc3ccccc3)nc3c2c(=O)n(C)c(=O)n3C)c1 | 0 | 0 | 0
CCOC(=O)c1c(C)n(-c2ccccc2)c2ccc(OC(=O)c3cc(OC)c(OC)c(OC)c3)cc12 | 0 | 0 | 0
CCC(O)c1ccc(Br)cc1NC(=O)c1cccc(Cl)c1 (centres undefined) | 0 | 0 | 0
O=C(NC1CCN(Cc2ccccc2)CC1)c1cc(C(=O)NC2CCN(Cc3ccccc3)CC2)cc(C(=O)NC2CCN(Cc3ccccc3)CC2)c1 | 0 | 0 | 0
COc1ccc(-c2cc3c(SCC(=O)Nc4cc(C(F)(F)F)ccc4Cl)nccn3n2)cc1 | 0 | 0 | 0
O=C(c1ccccc1F)N(Cc1ccc(Cl)cc1)c1ccccn1 | 0 | 0 | 0
Cn1c(C(=O)c2cccc3ccccc23)nc2ccccc21 | 0 | 0 | 0
CCCN(CCC)CC(O)COc1ccccc1C(=O)Nc1ccccc1 (centres undefined) | 0 | 0 | 0
Cc1ccc(Nc2nc(N)c3ccccc3n2)cc1Cl | 2 | 2 | 2

Compound | Toxicity (Schistosoma mansoni [1]) | Toxicity (Schistosoma mansoni [2]) | Toxicity (Schistosoma mansoni [3])
COc1nc(Nc2ccc(C(C)C)cc2)nc(OC)n1 | 0 | 0 | 0
CCCC(c1nnnn1C1CCCCC1)N1CCN(C(=O)c2ccco2)CC1.Cl (centres undefined) | 0 | 0 | 0
CCOc1cc2c(cc1OCC)C(c1cc(C)c(O)c(C)c1)NCC2.Cl (centres undefined) | 0 | 0 | 2
COc1ccccc1N1CCN(C(CNS(=O)(=O)c2ccc(Cl)cc2)c2cccnc2)CC1 (centres undefined) | 0 | 0 | 0
OC(Cn1nnc2ccccc21)Cn1c2ccc(Br)cc2c2cc(Br)ccc21 (centres undefined) | 0 | 0 | 0
CC(C)(C)C(=O)Nc1ccc(C(=O)Nc2cccc(-c3nc4ccccc4[nH]3)c2)cc1 | 2 | 0 | 0
c1ccc2cc3c(Nc4ccc(N5CCOCC5)cc4)ccnc3cc2c1 | 4 | 4 | 2
O=C(NC1CCCCC1)C(c1cccs1)N(CCc1ccccc1)C(=O)c1ccco1 (centres undefined) | 0 | 0 | 0
O=C(NCC(c1ccsc1)N1CCCCCC1)c1ccc(C(F)(F)F)cc1 (centres undefined) | 0 | 0 | 0
CCOC(=O)C1=C(C)N=c2sc(=Cc3ccccc3O)c(=O)n2C1c1ccc(OC)c2ccccc12 (centres undefined) | 4 | 0 | 0
O=C1c2ccccc2C2=Nc3ccccc3SC(c3cccc(F)c3)C12 (centres undefined) | 1 | 1 | 1
CC(C)(C)c1ccc2c(c1)CN(Cc1ccc(Cl)cc1)CO2 | 0 | 0 | 0
CN1CCN(c2c3c(c(C#N)c4nc5ccccc5n24)CCC3)CC1 | 0 | 0 | 0
OC1CCCCC1C1(NC(=S)Nc2ccccc2)CCCCC1 (centres undefined) | 0 | 0 | 0
CC1CC(C)CN(C(=O)c2ccc(Cl)cc2Cl)C1 (centres undefined) | 0 | 0 | 0
Cl.Oc1ccccc1CNCC12CC3CC(CC(C3)C1)C2 | 0 | 0 | 0
CCOc1ccc2nc(C)cc(Nc3ccc(N(C)C)cc3)c2c1.Cl | 4 | 4 | 2
COc1ccc(C2=C(c3ccc(OC)cc3)C3(c4ccccc4)C(=O)C2(c2ccccc2)C2C(=O)N(c4ccc(C)cc4)C(=O)C23)cc1 (centres undefined) | 0 | 0 | 0
Br.CCn1c2c(c(=N)c3c1CCC3)CCCC2 | 0 | 0 | 0
CSC1=NC(=Nc2c(C)cccc2C)C2(CCC(C(C)(C)C)CC2)N1c1ccc(Cl)cc1 (centres undefined) | 0 | 1 | 1
Br.Cc1ccc(C)c(-c2csc(Nc3ccc(C)c(C)c3)n2)c1 | 0 | 1 | 0
CCCCNc1nc(NC(C)(C)C)nc(NC(C)(C)C)n1 | 4 | 4 | 0
CCN1CCN(c2cc(C)c3cc(NC(=O)c4ccc(OC)c(OC)c4)ccc3n2)CC1 | 0 | 0 | 1

Compound | Toxicity (Schistosoma mansoni [1]) | Toxicity (Schistosoma mansoni [2]) | Toxicity (Schistosoma mansoni [3])
CN(C)c1ccc(N2C(N)=NC(N)=NC2(C)C)cc1 | 0 | 0 | 0
Cc1ccc2cc3c(N)c4c(C)ccc(C)c4nc3nc2c1 | 0 | 0 | 0
O=[N+]([O-])c1ccc(C=NNc2nc3ccccc3[nH]2)cc1 | 0 | 1 | 0
CC(O)(c1ccc(Cl)cc1)C(CN1CCCCC1)c1ccccc1.Cl (centres undefined) | 0 | 0 | 0
CN(C)c1ccc(-c2nc3cc(N)ccc3[nH]2)cc1 | 0 | 0 | 0
COc1ccc(Nc2nc(N/N=C/c3ccc(O)cc3)nc(Nc3ccc([N+](=O)[O-])cc3)n2)cc1 | 0 | 0 | 0
COc1ccccc1NC1=C(N2CCCCC2)C(=O)c2ccccc2C1=O | 4 | 4 | 4
COc1ccc2nc(C)cc(Nc3ccccc3O)c2c1 | 0 | 0 | 0
CN(N=O)C1=C(NC2CCCCC2)C(=O)c2ccccc2C1=O | 0 | 0 | 0
Cc1cc(=O)oc2c1ccc1oc(C(=O)c3ccccc3)c(C)c12 | 0 | 0 | 0
COc1ccc(-c2cn3c(C(=O)Nc4ccccc4Cl)c(-c4ccccc4)c4c3n2CCCC4)cc1 | 0 | 0 | 0
Oc1ccc2ccccc2c1CNc1nc2ccccc2[nH]1 | 0 | 0 | 2
Cc1ccc(Nc2nc(NCCO)c3ccccc3n2)cc1C | 1 | 0 | 1
CN1CCN(c2ccc(Nc3c4ccccc4nc4ccccc34)cc2)CC1 | 4 | 4 | 2
COc1ccc(N2CCN(C(CNC(=O)CC(C)(C)C)c3ccc4c(c3)OCO4)CC2)cc1 (centres undefined) | 0 | 0 | 0
CC1(c2ccccc2)Nc2ccccc2-c2nc3ccccc3n21 (centres undefined) | 0 | 0 | 0
Cc1ccc(-c2cc3c(SCC(=O)Nc4cc(C(F)(F)F)ccc4Cl)nccn3n2)cc1 | 0 | 0 | 0
Oc1ccc(-c2nc(-c3ccc4oc5ccc(-c6[nH]c(-c7ccc(O)cc7)nc6-c6ccccc6)cc5c4c3)c(-c3ccccc3)[nH]2)cc1 | 0 | 0 | 0
COc1ccc(CN2CCN(Cc3ccccc3)CC2)c(O)c1 | 0 | 0 | 0
O=C(Nc1ccc(-c2nc3cc4ccccc4cc3[nH]2)cc1)c1cccc(Br)c1 | 2 | 0 | 0
CCOc1ccc(CCNC(=O)c2cccs2)cc1OCC | 0 | 0 | 0
Cc1cccc(Nc2nc(N)c3ccccc3n2)c1.Cl | 0 | 0 | 2
